Among the data in PubChem BioAssay (NCI) are TGI and GI50 values, retold here.

Common to all, as to experiment: NCI tumour cell line growth inhibition, 48 h
Assay [1] has as its system SW-620 colon.
The test system of assay [2] is SK-MEL-2 melanoma.
The test system of assay [3] is HOP-92 NSCLC.
The subject of assay [4] is OVCAR-5 ovarian.
For assay [5], the system named is DU-145 prostate.
Assay [6] deals with PC-3 prostate.
For assay [7], the system named is NCI-H522 lung.
The test system of assay [8] is MCF7 breast.
For assay [9], the system named is A549 NSCLC.
Assay [10] has as its system RPMI-8226 leukemia.

“And” between values parts separate entries of the source, which are not always exact repeats. Equal entries are not always repeated.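 Where inhibition never reached the appropriate level, the endpoint shown equals the highest concentration tested. Otherwise, values were interpolated linearly from a five-concentration, 48-hour dose response in 96-well plates. GI50 marks 50% less growth. Definition used: TGI = concentration required for complete inhibition of growth.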

On to `O=C1C(c2c(O)[nH]c3ccc(I)cc23)=Nc2ccccc21`, for which the TGI in assay [1] was more than 56.7 µM; in [2] it was 15.4 µM; in assay [3] it was 12.4 µM; in assay [4], 57.1 µM; in assay [5] it was more than 100 µM; in assay [6], 9.4 µM. The TGI in [7] was more than 58.9 µM; in [8], 15.7 µM; in assay [9], 20.3 µM; in assay [10], more than 100 µM.

`CCOC(=O)[C@H](CO)Nc1c(O)c2c(c(O)c1Cl)C(=O)C=CC2=O`: the TGI in [1], in [2], in assay [3], in assay [4], in assay [5] and in assay [6] was more than 10 µM throughout. In addition, the TGI in [7], in assay [8], in assay [9] and in assay [10] was more than 10 µM in each case.

For the compound `Nc1nc(N)c2nc(CNc3ccc(C(=O)NC(CCNC(=O)c4ccccc4C(=O)O)C(=O)O)cc3)cnc2n1` (configuration not stated), the GI50 in [1] was 0.00628 µM; in assay [3] it was more than 100 µM; in assay [4], 0.0863 µM; in assay [6], 0.00666 µM; in [9], 0.0688 µM; in [10], 0.0343 µM. For the same compound, the TGI in assay [1], in assay [2], in assay [3], in [4], in assay [5] and in [6] was more than 100 µM throughout. Further, the TGI in assay [7], in [8], in assay [9] and in assay [10] was more than 100 µM in each case.

In the case of `CCOC(=O)C1=C(C)N(c2ccc(Cl)cc2)C2(O)C=CC(Nc3ccc(Cl)cc3)=C3C(=O)N(c4ccccc4)C(=O)C312` (configuration not stated), the TGI in assay [1] stood at 14.6 µM; in [2] it was 10.5 µM; in assay [3], 9.19 µM; in [4] it was 21.3 µM; in assay [5] it was 17.8 µM; in assay [6] it was 22.8 µM. Also, the TGI in assay [7] was 5.25 µM; in [8], 9.3 µM; in assay [9], more than 100 µM; in [10], 4.13 µM.

Turning to `CN(C)CCCN=c1c2ccccc2n(C)c2[nH]c(=O)n(C)c(=O)c12`, the TGI is 28.1 µM in assay [1]; 9.96 µM in [2]; more than 84.7 µM in assay [3]; 43.7 µM in assay [4]; more than 79 µM in assay [5]; 22.4 µM in [6]. Also, the TGI is 9.34 µM in assay [7], 26.6 µM in [8], more than 100 µM in assay [9] and more than 54.4 µM in assay [10].

`COc1cc(C2c3cc4c(cc3OC(NNc3ccccc3)C2C)OCO4)cc(OC)c1O` (configuration not stated): the TGI in [1] was 21 µM; in [2], 6.35 µM; in [3], 24.5 µM; in assay [4] it was 18 µM; in [5] it was 17.5 µM; in [6], 14.9 µM. In addition, the TGI was 12.1 µM in assay [7], 13.3 µM in [8], 13.3 µM in assay [9] and 9.78 µM in [10].

On to `O=C1c2ccccc2C(=O)c2c(NCC3CO3)cccc21` (configuration not stated), for which the TGI in assay [1] is 12.7 µM; in assay [2], 32 µM; in assay [3], more than 100 µM; in assay [4], more than 100 µM; in [5], more than 34.3 µM; in assay [6] it was more than 57 µM. For the same compound, the TGI was more than 100 µM in assay [7], 7.14 µM in [8], more than 100 µM in assay [9] and more than 85 µM in [10].

For the compound `CC(C)(CO)NC(=O)c1cccs1`, the TGI in assay [1], in [2], in assay [3], in [4], in [5] and in assay [6] was more than 100 µM throughout. In addition, the TGI in [7], in [8], in assay [9] and in [10] was more than 100 µM in each case.

On to `COC(=O)CN(CC1O[C@@H]2OC(C)(C)O[C@@H]2C1NC(C)=O)C(=O)OCc1ccccc1` (some centres not stated), for which the TGI in assay [1], in assay [2], in assay [3], in [4], in assay [5] and in assay [6] was more than 100 µM throughout. For the same compound, the TGI in assay [7], in [8], in [9] and in assay [10] was more than 100 µM throughout.

In the case of `CCN(CCN(CC)C(=O)NC)C(=O)NC`, the TGI in assay [1], in assay [2], in assay [3], in assay [4], in assay [5] and in assay [6] was more than 100 µM each time. The TGI in [7], in assay [8], in assay [9] and in [10] was more than 100 µM each time.

As to `O=C(NCCC1CN(S(=O)(=O)C(F)(F)F)c2ccccc21)OCc1ccccc1` (configuration not stated), the TGI in assay [1], in assay [2], in assay [3], in assay [4], in assay [5] and in [6] was more than 100 µM throughout. Moreover, the TGI in assay [7], in assay [8], in assay [9] and in assay [10] was more than 100 µM throughout.

As for `NC(CS)C(=O)NCCNc1ccc(NCCNC(=O)C(N)CS)c2c1C(=O)c1c(O)ccc(O)c1C2=O` (configuration not stated), the GI50 was 0.0218 µM in assay [1]; 0.227 µM in assay [2]; 0.0416 µM in [3]; 0.0756 µM in [4]; 0.0165 µM in [7]; 0.0152 µM in assay [10]. Moreover, the TGI in assay [1] is 1.24 µM and 1.01 µM; in assay [2], 1.38 µM and 0.87 µM; in assay [3], 0.195 µM and 1.03 µM; in assay [4] it was 1.58 µM and 0.718 µM; in assay [5], 0.123 µM; in [6], 1.13 µM. Moreover, the TGI in [7] is 0.421 µM and 0.127 µM; in assay [8], 1.21 µM; in assay [9], 0.191 µM; in assay [10] it was 0.744 µM and 0.0804 µM.

For `CCOC(=O)C(NC(=O)c1ccccc1)(Nc1ccc(S(=O)(=O)Nc2ccc(OC)nn2)cc1)C(F)(F)F` (configuration not stated), the TGI in assay [1], in assay [2], in assay [3], in assay [4], in assay [5] and in assay [6] was more than 100 µM throughout. Further, the TGI in assay [7], in assay [8], in assay [9] and in [10] was more than 100 µM each time.

For the compound `O=[N+]([O-])c1ccc2c(N=Nc3ccc4ccccc4c3O)c(O)cc(S(=O)(=O)O)c2c1`, the TGI in [1] is more than 100 µM; in [2], more than 100 µM; in assay [3], more than 100 µM; in assay [4] it was more than 100 µM; in assay [5] it was more than 88.4 µM; in [6], more than 100 µM. Further, the TGI in assay [7] is more than 57.3 µM; in assay [8], more than 100 µM; in [9] it was more than 100 µM; in assay [10], 61.5 µM.

In the case of `Cc1cc2c(cc1-c1cc3c(cc1C)C(C(C)C)=C(O)C(=O)/C3=C\Nc1ccccn1)/C(=C/Nc1ccccn1)C(=O)C(O)=C2C(C)C`, the TGI in [1] was more than 100 µM; in [2], 86.5 µM; in assay [3] it was more than 100 µM; in [4], more than 100 µM; in assay [5], more than 100 µM; in assay [6] it was more than 100 µM. The TGI was 74.8 µM in assay [7], more than 100 µM in [8], more than 100 µM in assay [9] and more than 100 µM in assay [10].

As to `COc1c(C)c(C/C=C(\C)CCCCO)c(OC)c2ccccc12`, the TGI in assay [1] was more than 100 µM; in assay [2] it was more than 100 µM; in assay [3], 80.4 µM; in assay [4] it was more than 100 µM; in assay [5], more than 100 µM; in assay [6], more than 100 µM. The TGI in [7] is 42.3 µM; in assay [8] it was more than 100 µM; in assay [9] it was more than 100 µM; in [10], more than 100 µM.

For the compound `COc1ccc(C=NCCCN=Cc2ccc(OC)cc2O)c(O)c1`, the TGI is more than 100 µM in assay [1]; more than 100 µM in assay [2]; 68.8 µM in assay [3]; more than 100 µM in assay [4]; more than 100 µM in assay [5]; more than 100 µM in assay [6]. Also, the TGI in [7], in assay [8], in assay [9] and in [10] was more than 100 µM throughout.

Take `CC1(C)OC2[C@@H](CO[C@@]3([C@H]4OC(C)(C)O[C@@H]4CO)OC(C)(C)O[C@@H]23)O1` (some centres not stated): the TGI in assay [1], in assay [2], in assay [3], in [4], in [5] and in assay [6] was more than 100 µM throughout. The TGI in assay [7], in assay [8], in [9] and in assay [10] was more than 100 µM in each case.

Turning to `C=CC(=C)CCC(Br)C(C)(C)Cl` (configuration not stated), the TGI in assay [1], in [2], in assay [3], in assay [4], in assay [5] and in assay [6] was more than 100 µM in each case. For the same compound, the TGI in assay [7] is 54.2 µM; in assay [8], more than 100 µM; in [9], more than 100 µM; in assay [10], more than 100 µM.

Regarding `N#CCN1CCCN(CC#N)CCN(CC#N)CCCN(CC#N)CC1`, the TGI in assay [1], in assay [2], in assay [3], in assay [4], in assay [5] and in assay [6] was more than 100 µM in each case. The TGI in assay [7], in [8], in assay [9] and in assay [10] was more than 100 µM in each case.

Turning to `CCOC(=O)[C@@]12NN=N[C@@H]1[C@H]1CO[C@H](c3ccccc3)N1C2=O`, the TGI in assay [1] worked out at 25.5 µM; in assay [2], 21.7 µM; in assay [3] it was 8.58 µM; in assay [4], 31.8 µM; in assay [5], 34.3 µM; in assay [6], 26 µM. Further, the TGI in assay [7] is 13.1 µM; in assay [8], 25.3 µM; in assay [9], more than 100 µM; in [10], 8.71 µM.

With `COC(=O)[C@@H](NC(=O)c1ccc(CNC(=O)/C(C)=C/c2ccccc2)cc1)C(C)C`, the TGI in assay [1], in assay [2], in [3], in assay [4], in assay [5] and in assay [6] was more than 100 µM throughout. Further, the TGI in [7], in assay [8], in assay [9] and in assay [10] was more than 100 µM throughout.

On to `COc1ccccc1[C@@H]1CCC2CC[C@@H](c3ccccc3OC)[N+]21Cc1ccccc1` (some centres not stated), for which the TGI in assay [1] came out at 22.5 µM; in assay [2], 8.86 µM; in assay [3], 4.06 µM; in [4], 12.9 µM; in [5] it was 13.7 µM; in assay [6], 7.94 µM. Moreover, the TGI in assay [7] worked out at 11.5 µM; in [8] it was 12.2 µM; in assay [9], 13.1 µM; in assay [10], 1.47 µM.

On to `CCOC(=O)c1cc([N+](=O)[O-])cc([N+](=O)[O-])c1Sc1ncnc2nc[nH]c12`, for which the TGI was more than 100 µM in [1]; 9.43 µM in assay [2]; 2.52 µM in assay [3]; 27.6 µM in [4]; 5.42 µM in [5]; 9.57 µM in assay [6]. In addition, the TGI was 4.39 µM in [7], 4.08 µM in [8], 32.5 µM in assay [9] and more than 21.8 µM in assay [10].

On to `O=C1C=CC(=O)[C@H]2C3C=CC(C4C3C3(Cl)C(Cl)=C(Cl)[C@]4(Cl)C3(Cl)Cl)[C@@H]12` (some centres not stated), for which the TGI in assay [1] was found to be 23.2 µM; in assay [2], 20.3 µM; in [3], 7.69 µM; in assay [4] it was 19.7 µM; in assay [5], 21.3 µM; in [6], 16.4 µM. Besides, the TGI in assay [7] stood at 23.1 µM; in [8] it was 13.4 µM; in [9], 16 µM; in [10], 23 µM.
